Read-outs that look alike come from different tables or passages of the source. Marks after values point to notes of the source that are not given here.
Tests used:
[1] = tested on: patients with advanced solid tumors; assay: Exposure-response model (veliparib plasma concentration vs ∆∆QTcF); format: in vivo, human; conditions: linear mixed effects model
Method: To establish the nonsignificance of a hysteresis effect, the criteria discussed in Darpo et al. were applied. Subsequently, linear mixed effects models were tested, with or without an additional lagged effect compartment, depending on the outcome of the test for hysteresis. A final model was chosen based on goodness of fit, plausibility of the parameters, and Bayesian information criterion (BIC). The relationship between ∆∆QTcF and veliparib concentration was modeled using the following equation: ΔΔQTcFi,j=ηi(2)+(Slope0+ηi(1))×Concentrationi,j+εi,j for subject i and time point j. η ^(2) represents the inter-subject variability on intercept (fixed effect on intercept is set to zero). Slope0 represents fixed effect on slope. η ^(1) represents the inter-subject variability of the Slope. ε i,j is the residual variability in subject i at time j.

[2] = Pharmacokinetic assessment of veliparib plasma concentrations after a single oral dose; format: in vivo, human; conditions: for half-life / AUC(0-inf) / Vd/F / AUC(0-t) / Cmax / Tmax: human, plasma; for Vd/F: read-out: VZ/F
Method: (§1) Following screening, on the morning of day 1 of each period, eligible patients received a single dose of veliparib 200 mg, veliparib 400 mg, or placebo according to the treatment sequence assigned at randomization, administered orally between 8.00 and 10.00 AM, and approximately 30 min after the start of a low-fat breakfast. Each treatment period lasted 3–7 days, allowing for ≥3 days of drug washout between periods. After study completion, patients were permitted to enter an extension study (NCT02033551) to assess the safety of veliparib as monotherapy or in combination with chemotherapy.
In each period, blood samples were collected for pharmacokinetic analysis at 0 h (pre-dose), and at 0.5, 1, 2, 3, 10, and 24 h post-dose. Plasma concentrations of veliparib were determined using a validated online solid-phase extraction followed by liquid chromatography with tandem mass spectrometric detection with a lower limit of quantitation for veliparib of 1.05 ng/mL. Veliparib pharmacokinetic parameters were estimated using non-compartmental methods.

[3] = tested on: patients with advanced solid tumors; assay: Safety: treatment-emergent adverse events; format: in vivo, human; conditions: for TEAE: AE leading to discontinuation / TEAE: Abdominal pain / TEAE: Any AE / TEAE: Any fatal AE / TEAE: Any serious AE / TEAE: Back pain / TEAE: Constipation / TEAE: Decreased appetite / TEAE: Dehydration / TEAE: Diarrhea / TEAE: Dizziness / TEAE: Dysgeusia / TEAE: Fatigue / TEAE: Hypomagnesemia / TEAE: Myalgia / TEAE: NCI CTCAE grade 3 or 4 / TEAE: Nausea / TEAE: Neck pain / TEAE: Vomiting: N = 47; for TEAE: At least possibly related to study drug: N = 47, as assessed by investigator; for Deaths: N = 47, includes non-treatment-emergent deaths
Method: Safety was evaluated by AE monitoring, vital signs, physical examination, and laboratory testing throughout the study. Treatment-emergent AEs (TEAEs) were recorded from the time of first dose of study drug until 30 days from the last day of dosing or discontinuation, or until the first dose of study drug for patients enrolling in the NCT02033551 extension study. TEAEs were classified by Medical Dictionary for Regulatory Activities version 17.0 system organ class and preferred term. The severity of AEs was rated according to the National Cancer Institute Common Terminology Criteria for Adverse Events version 4.0. The safety population consisted of all patients’ data.

dogs = conditions: preclinical studies in dogs; cited from earlier work
[4] = tested on: patients with advanced solid tumors; assay: ECG assessment of QTcF interval, single-dose placebo-controlled crossover study; format: in vivo, human
Excerpt: This was a multicenter phase 1, single-dose, double-blind, placebo-controlled, randomized, 3-period, 6-sequence crossover study (NCT02009631). The primary objective was to evaluate the effect of veliparib on corrected QT interval using Fridericia’s formula (QTcF) in patients with solid tumors. Secondary objectives were to assess the pharmacokinetics, safety, and tolerability of single-dose veliparib.
as §1
Serial, resting 12-lead ECG measurements were performed at screening, on day 1 of each period at 0 h (pre-dose), and at 0.5, 1, 2, 3, 10, and 24 h post-dose, and at the final study visit on day 3 of period 3. ECGs were performed in triplicate except for a single ECG at screening. All ECG tracings were evaluated using the automated signal analysis algorithm of eECG/ABBIOS to measure predefined ECG intervals (RR, PR, QT, and QRS duration). All ECGs were manually verified and adjudicated by an expert over-reader who was blinded to treatment, time, and patient identification. T- and U-wave morphologies were independently reviewed by a qualified cardiologist who was similarly blinded to treatment, time, and patient identification. QTcF was determined as follows: QTCF=QT/RR3
A linear mixed effects model was used for the analysis of baseline-adjusted QTcF intervals (∆QTcF) for the first 24 h after dosing with either placebo, veliparib 200 mg, or veliparib 400 mg. The primary endpoint was the baseline-adjusted difference in mean QTcF between the veliparib 400 mg dose and placebo (∆∆QTcF) at six post-dose time points. Absence of QTcF effect was established if the 95 % upper confidence bound for the mean ∆∆QTcF between veliparib 400 mg and placebo was below the 10 ms threshold of clinical significance for all post-dose time points, in accordance with ICH E14 guidelines. For the QT/QTc, PR, and QRS interval variables, appropriate cutoff points defining the categories of the largest change from baseline were determined. For QTc, the cutoff points for these categories were as specified in the ICH E14 guidelines. The dataset for ECG evaluations included all available patients’ data.

[5] = tested on: patients with BRCA1/2-mutated or wild-type tumors; set-up: method as in earlier work; conditions: cited from earlier work
[6] = 200 mg single oral dose, N = 46, mean ± SD
[7] = 400 mg single oral dose, N = 46, mean ± SD
[8] = 200 mg single oral dose, N = 47, mean ± SD
[9] = any of the three regimens (200 mg, 400 mg, placebo)
[10] = veliparib 200 mg single oral dose vs placebo
[11] = veliparib 400 mg single oral dose vs placebo

With `C[C@]1(c2nc3c(C(N)=O)cccc3[nH]2)CCCN1` [Veliparib] the “predicted mean ∆∆QTcF at geometric mean of Cmax” value ([1]; 200 mg dosing) was 2.45 ms, the “predicted upper 95th percentile ∆∆QTcF at geometric mean of Cmax” value ([1]; 200 mg dosing) was 3.28 ms and the “predicted mean ∆∆QTcF at geometric mean of Cmax” value ([1]; 400 mg dosing) was 4.62 ms. For the same compound, the “predicted upper 95th percentile ∆∆QTcF at geometric mean of Cmax” value ([1]; 400 mg dosing) was 6.19 ms, the “AUC∞/dose” value [2, 6] was 59.9 ± 19.9^b (ng h/mL)/mg and the CL/F [2, 6] was 18.2 ± 5.09^b L/h. The Cmax/dose [2, 6] was 6.62 ± 1.89^b (ng/mL)/mg, the “AUC∞/dose” value [2, 7] was 63.8 ± 20.9 (ng h/mL)/mg and the CL/F [2, 7] was 17.3 ± 5.27 L/h. For the same compound, the Cmax/dose [2, 7] was 6.51 ± 2.12 (ng/mL)/mg, the half-life ([2]; oral, similar for the 200 mg and 400 mg dose groups, read-out: terminal phase elimination half-life (t1/2) (converted)) was roughly 5.5 h and the half-life ([2]; 200 mg single oral dose, N = 46, harmonic mean ± pseudo SD, read-out: t1/2 (converted)) was 5.3 ± 1.1 h. It also gave an AUC(0-inf) [2, 6] of 12000 ± 3980 ng·h/mL, a Vd/F [2, 6] of 141 ± 42.8 L and an AUC(0-t) [2, 8] of 11100 ± 3120 ng·h/mL. It also gave a Cmax [2, 8] of 1320 ± 378 ng/mL, a Tmax [2, 8] of 2.4 ± 0.7 h and a half-life ([2]; 400 mg single oral dose, N = 46, harmonic mean ± pseudo SD, read-out: t1/2 (converted)) of 5.4 ± 1.3 h. The AUC(0-inf) [2, 7] was 25500 ± 8370 ng·h/mL, the AUC(0-t) [2, 7] was 23800 ± 7100 ng·h/mL and the Cmax [2, 7] was 2610 ± 847 ng/mL. For the same compound, the Tmax [2, 7] was 2.5 ± 0.6 h, the Vd/F [2, 7] was 138 ± 48.4 L and the “mean time to Cmax (Tmax)” value ([2]; similar for the 200 mg and 400 mg dose groups) was “approximately 2.5 h”. The “systemic exposure vs dose” value ([2]; single oral doses 200 mg and 400 mg) was “increased in a dose-proportional manner”, the “TEAE: AE leading to discontinuation” value ([3]; 200 mg) was 0 n (%) and the “TEAE: Abdominal pain” value ([3]; 200 mg) was 2 (4.3) n (%). The “TEAE: Any AE” value ([3]; 200 mg) was 17 (36.2) n (%), the “TEAE: Any fatal AE” value ([3]; 200 mg) was 0 n (%) and the “TEAE: Any serious AE” value ([3]; 200 mg) was 0 n (%). The “TEAE: Back pain” value ([3]; 200 mg) was 0 n (%), the “TEAE: Constipation” value ([3]; 200 mg) was 0 n (%) and the “TEAE: Decreased appetite” value ([3]; 200 mg) was 0 n (%). For the same compound, the “TEAE: Dehydration” value ([3]; 200 mg) was 2 (4.3) n (%), the “TEAE: Diarrhea” value ([3]; 200 mg) was 1 (2.1) n (%) and the “TEAE: Dizziness” value ([3]; 200 mg) was 0 n (%). For the same compound, the “TEAE: Dysgeusia” value ([3]; 200 mg) was 0 n (%), the “TEAE: Fatigue” value ([3]; 200 mg) was 2 (4.3) n (%) and the “TEAE: Hypomagnesemia” value ([3]; 200 mg) was 0 n (%). The “TEAE: Myalgia” value ([3]; 200 mg) was 4 (8.5) n (%), the “TEAE: NCI CTCAE grade 3 or 4” value ([3]; 200 mg) was 1 (2.1) n (%) and the “TEAE: Nausea” value ([3]; 200 mg) was 6 (12.8) n (%). The “TEAE: Neck pain” value ([3]; 200 mg) was 0 n (%), the “TEAE: Vomiting” value ([3]; 200 mg) was 2 (4.3) n (%) and the “TEAE: At least possibly related to study drug” value ([3]; 200 mg) was 7 (14.9) n (%). The Deaths ([3]; 200 mg) was 0 n (%), the “TEAE: AE leading to discontinuation” value ([3]; 400 mg) was 1 (2.1) n (%) and the “TEAE: Abdominal pain” value ([3]; 400 mg) was 2 (4.3) n (%). The “TEAE: Any AE” value ([3]; 400 mg) was 23 (48.9) n (%), the “TEAE: Any fatal AE” value ([3]; 400 mg) was 0 n (%) and the “TEAE: Any serious AE” value ([3]; 400 mg) was 0 n (%). The “TEAE: Back pain” value ([3]; 400 mg) was 2 (4.3) n (%), the “TEAE: Constipation” value ([3]; 400 mg) was 1 (2.1) n (%) and the “TEAE: Decreased appetite” value ([3]; 400 mg) was 1 (2.1) n (%). The “TEAE: Dehydration” value ([3]; 400 mg) was 0 n (%), the “TEAE: Diarrhea” value ([3]; 400 mg) was 3 (6.4) n (%) and the “TEAE: Dizziness” value ([3]; 400 mg) was 3 (6.4) n (%). The “TEAE: Dysgeusia” value ([3]; 400 mg) was 2 (4.3) n (%), the “TEAE: Fatigue” value ([3]; 400 mg) was 3 (6.4) n (%) and the “TEAE: Hypomagnesemia” value ([3]; 400 mg) was 0 n (%). The “TEAE: Myalgia” value ([3]; 400 mg) was 1 (2.1) n (%), the “TEAE: NCI CTCAE grade 3 or 4” value ([3]; 400 mg) was 1 (2.1) n (%) and the “TEAE: Nausea” value ([3]; 400 mg) was 4 (8.5) n (%). For the same compound, the “TEAE: Neck pain” value ([3]; 400 mg) was 2 (4.3) n (%), the “TEAE: Vomiting” value ([3]; 400 mg) was 4 (8.5) n (%) and the “TEAE: At least possibly related to study drug” value ([3]; 400 mg) was 11 (23.4) n (%). The Deaths ([3]; 400 mg) was 0 n (%), the TEAE myalgia ([3]; veliparib 200 mg) was 8.5% and the TEAE nausea ([3]; veliparib 200 mg) was 12.8%. For the same compound, the “patients experiencing treatment-emergent adverse events” value ([3]; veliparib 200 mg) was 36.2%, the TEAE diarrhea ([3]; veliparib 400 mg) was 6.4% and the TEAE dizziness ([3]; veliparib 400 mg) was 6.4%. It also gave a TEAE fatigue ([3]; veliparib 400 mg) of 6.4%, a TEAE nausea ([3]; veliparib 400 mg) of 8.5% and a TEAE vomiting ([3]; veliparib 400 mg) of 8.5%. For the same compound, the “patients experiencing treatment-emergent adverse events” value ([3]; veliparib 400 mg) was 48.9%, the “effect on corrected QT (QTc) interval” value (dogs) was “mild but concentration-dependent increase” and the “patients with QTcF value greater than 480 ms” value [4, 9] was “No patient”. For the same compound, the “patients with change from baseline in QTcF interval greater than 30 ms” value [4, 9] was “No patient”, the “maximum 95 % upper confidence bound for mean ∆∆QTcF” value [4, 10] was 6.1 ms and the “maximum mean ∆∆QTcF” value [4, 10] was 3.6 ms. For the same compound, the “maximum 95 % upper confidence bound for mean ∆∆QTcF” value [4, 11] was 8.9 ms, the “maximum mean ∆∆QTcF” value [4, 11] was 6.4 ms and the dose-limiting toxicities ([5]; at 400 mg twice daily, in patients with BRCA1/2-mutated and wild-type tumors, respectively) was “grade 3 nausea/vomiting and grade 2 seizure”. The “maximum tolerated dose of single-agent veliparib” value ([5]; phase 1 study, patients with BRCA1/2-mutated or wild-type tumors) was 400 mg twice daily.

From paper PMC5083757, “Effect of veliparib (ABT-888) on cardiac repolarization in patients with advanced solid tumors: a randomized, placebo-controlled crossover study” (Cancer Chemotherapy and Pharmacology, 2016)
